Reference: patent US20250388589A1, “TRICYCLIC HETEROCYCLIC DERIVATIVES, COMPOSITIONS AND USES THEREOF” (Danatlas Pharmaceuticals Co., Ltd., priority 2022, published 2025)

Assays:
[1] = target: hPARG (C-terminal His6-tag) (Homo sapiens (Human), UniProt Q86W56); assay: PARG Enzymatic Activity Assay (HTRF); type: biochemical; settings: hPARG 65 pM final, biotinylated-NAD ribosylated PARP1 8 nM final
Protocol: PARG Enzymatic Activity Assay HTRF assay was used to measure the ability of compounds to inhibit the activity of PARG in vitro. C-terminal His6-tag PARG expressed in E. coli was purified and stored at −80° C. in aliquots. Assay measurements were performed with 1×buffer comprising 50 mM Tris pH 7.4, 0.1 mg/mL BSA, 3 mM EDTA, 0.4 mM EGTA, 1 mM DTT, 50 mM KCl and 0.01% Tween 20.
Compounds dissolved in DMSO were plated into a 384-well assay plate (PerkinElmer, Catalog #: 6008280) in duplicate using a dispenser (Labcyte, Echo 665), and tested on a 10-point 4-fold serial dilution. Add 5 L Enzyme mix [hPARG (C-terminal His6-tag, 4.2 μM), 65 pM final] to the test wells. The plates were covered and left to incubate for 60 minutes at RT before the addition of 5 L substrate mix [biotinylated-NAD ribosylated PARP1 (6.1 μM), 8 nM final] to initiate reaction. After incubating 10 minutes at RT, add 2.5 L Streptavidin-Eu cryptate (Cisbio, Catalog #: 610SAKLA) and 2.5 L Mab anti 6HIS-XL665 (Cisbio, Catalog #: 61HISXLA) to the plate, and incubate for 60 minutes at RT. Read on a multimode plate reader (PerkinElmer, Envision 2015) in time-resolved fluorescence (TRF) mode, with excitation at 337 nm and emission at both 620 nm and 665 nm. Average HTRF signal of high control (Wells with 1% DMSO) was calculated and as Vehicle Control (VC). Average HTRF signal of low control (no Enzyme) was calculated and as Positive control (PC).
(§1) IC50 values were determined by fitting the data to the standard 4 parameters with Hill Slope using GraphPad Prism software.

Kuramochi cell line = assay: Cell Viability Assay (Cell Titer-Glo, 7 days); type: cell-based; settings: 168 h, Kuramochi cells, 7 days incubation, read-out: PARG Cell viability (IC50)
Protocol: Cell viability studies were conducted in Kuramochi cell line. Cells were maintained in RPMI (Hyclone, Catalog #: SH3080901B) supplemented with 10% v/v FBS (AusGeneX, Catalog #: FBS500-S), 1% v/v Penicillin Streptomycin (Gibco, Catalog #: 15140122). Cells were seeded in 96-well plates (PerkinElmer, Catalog #: 6005680) at a density of 400 cells/well. Compounds dissolved in DMSO were plated in duplicate using a multichannel pipette, and tested on a 9-point 3-fold serial dilution. Cells were incubated for 7 days in a 37° C. active humidified incubator at 5% CO2. Cell viability was measured using the Cell Titer-Glo reagent (Promega, Catalog #: G7573) as manufacturer's instructions. Luminescence signal was measured with a multimode plate reader (Perkin Elmer, Envision 2105 or BMG, ClarioStar Plus). Average values of DMSO treated wells in a plate was calculated and as high control (HC). Average values of only medium in a plate was calculated and as low control (LC)
as §1

Sequence of hPARG (C-terminal His6-tag) (Q86W56 whole entry): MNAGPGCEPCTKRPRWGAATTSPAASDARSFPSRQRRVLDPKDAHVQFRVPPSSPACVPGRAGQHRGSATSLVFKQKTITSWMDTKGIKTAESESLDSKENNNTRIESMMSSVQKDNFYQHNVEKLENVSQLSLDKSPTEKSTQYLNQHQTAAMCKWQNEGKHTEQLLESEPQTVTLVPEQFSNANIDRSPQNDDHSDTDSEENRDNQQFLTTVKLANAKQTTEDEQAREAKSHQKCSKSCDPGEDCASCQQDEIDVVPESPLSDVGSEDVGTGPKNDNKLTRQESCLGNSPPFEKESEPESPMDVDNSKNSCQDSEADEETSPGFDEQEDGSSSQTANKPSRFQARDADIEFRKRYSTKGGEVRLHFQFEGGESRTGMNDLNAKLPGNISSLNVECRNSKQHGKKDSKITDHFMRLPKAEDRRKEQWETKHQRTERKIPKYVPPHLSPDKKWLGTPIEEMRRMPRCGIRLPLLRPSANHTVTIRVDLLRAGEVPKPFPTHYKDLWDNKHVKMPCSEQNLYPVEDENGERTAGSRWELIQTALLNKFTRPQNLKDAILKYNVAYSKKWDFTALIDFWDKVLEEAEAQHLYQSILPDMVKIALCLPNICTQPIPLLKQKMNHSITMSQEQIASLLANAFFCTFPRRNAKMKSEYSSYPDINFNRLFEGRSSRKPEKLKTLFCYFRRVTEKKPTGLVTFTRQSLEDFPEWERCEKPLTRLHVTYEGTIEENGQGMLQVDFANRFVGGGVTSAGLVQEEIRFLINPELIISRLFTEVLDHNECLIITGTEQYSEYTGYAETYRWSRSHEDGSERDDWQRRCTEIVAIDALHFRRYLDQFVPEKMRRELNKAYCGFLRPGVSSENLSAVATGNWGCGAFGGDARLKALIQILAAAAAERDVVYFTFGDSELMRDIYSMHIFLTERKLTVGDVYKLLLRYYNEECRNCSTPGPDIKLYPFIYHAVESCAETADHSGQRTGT

Row | Compound | IC50 [1] [nM] | IC50 (Kuramochi cell line) [nM]
1 | Cc1nnc(-n2c3cc(S(=O)(=O)NC4(C#N)CC4)ccc3c3c(N4CCN(C(=O)C5CC5)CC4)ncnc32)s1 [Example 185, N-(1-Cyanocyclopropyl)-4-(4-(cyclopropanecarbonyl)piperazin-1-yl)-9-(5-methyl-1,3,4-thiadiazol-2-yl)-9H-pyrimido[4,5-b]indole-7-sulfonamide] | 100 to 1000 | 100 to 1000
2 | CN1CCN(c2ccnc3c2c2ccc(S(=O)(=O)NC4(C#N)CC4)cc2n3-c2nnc(C(F)F)s2)CC1 [Example 198, N-(1-Cyanocyclopropyl)-9-(5-(difluoromethyl)-1,3,4-thiadiazol-2-yl)-4-(4-methylpiperazin-1-yl)-9H-pyrido[2,3-b]indole-7-sulfonamide] | < 100 | < 100
3 | N#CC1(NS(=O)(=O)c2ccc3c4c(N5CCN(CC6CC6)C(=O)C5)ncnc4n(-c4nnc(C(F)F)s4)c3c2)CC1 [Example 40, N-(1-Cyanocyclopropyl)-4-(4-(cyclopropylmethyl)-3-oxopiperazin-1-yl)-9-(5-(difluoromethyl)-1,3,4-thiadiazol-2-yl)-9H-pyrimido[4,5-b]indole-7-sulfonamide] | < 100 | < 100
4 | N#CC1(NS(=O)(=O)c2ccc3c4c(C5CCN(C(=O)[C@@H]6CCOC6)CC5)ncnc4n(-c4nnc(C(F)F)s4)c3c2)CC1 [Example 116, (R)-N-(1-cyanocyclopropyl)-9-(5-(difluoromethyl)-1,3,4-thiadiazol-2-yl)-4-(1-(tetrahydrofuran-3-carbonyl)piperidin-4-yl)-9H-pyrimido[4,5-b]indole-7-sulfonamide] | < 100 | < 100
5 | CC1(NS(=O)(=O)c2ccc3c4c(N5CCN(C(=O)C6CC6)CC5)ncnc4n(-c4nnc(C(F)F)s4)c3c2)CC1 [Example 1, 4-(4-(Cyclopropanecarbonyl)piperazin-1-yl)-9-(5-(difluoromethyl)-1,3,4-thiadiazol-2-yl)-N-(1-methylcyclopropyl)-9H-pyrimido[4,5-b]indole-7-sulfonamide] | < 100 | 100 to 1000
6 | N#CC1(NS(=O)(=O)c2ccc3c4c(C5CCNCC5)ncnc4n(-c4nnc(C(F)F)s4)c3c2)CC1 [Example 87, N-(1-Cyanocyclopropyl)-9-(5-(difluoromethyl)-1,3,4-thiadiazol-2-yl)-4-(piperidin-4-yl)-9H-pyrimido[4,5-b]indole-7-sulfonamide] | < 100 | 100 to 1000
7 | CC1(NS(=O)(=O)c2ccc3c4c(C5CCN(C(=O)C(C)(C)O)CC5)ncnc4n(-c4nnc(C(F)F)s4)c3c2)CC1 [Example 94, 9-(5-(Difluoromethyl)-1,3,4-thiadiazol-2-yl)-4-(1-(2-hydroxy-2-methylpropanoyl)piperidin-4-yl)-N-(1-methylcyclopropyl)-9H-pyrimido[4,5-b]indole-7-sulfonamide] | < 100 | < 100
8 | C[C@@H]1CN(C(=O)N(C)C)[C@@H](C)CN1c1ncnc2c1c1ccc(S(=O)(=O)NC3(C#N)CC3)cc1n2-c1nnc(C(F)F)s1 [Example 59, (2S,5R)-4-(7-(N-(1-Cyanocyclopropyl)sulfamoyl)-9-(5-(difluoromethyl)-1,3,4-thiadiazol-2-yl)-9H-pyrimido[4,5-b]indol-4-yl)-N,N,2,5-tetramethylpiperazine-1-carboxamide] | < 100 | < 100
9 | CN(C)C(=O)N1CCC(c2ncnc3c2c2ccc(S(=O)(=O)NC4(C)CC4)cc2n3-c2nnc(C(F)F)s2)CC1 [Example 153, 4-(9-(5-(Difluoromethyl)-1,3,4-thiadiazol-2-yl)-7-(N-(1-methylcyclopropyl)sulfamoyl)-9H-pyrimido[4,5-b]indol-4-yl)-N,N-dimethylpiperidine-1-carboxamide] | < 100 | < 100
10 | N#CC1(NS(=O)(=O)c2ccc3c4c(C5CCN(C(=O)N6CC[C@H](O)C6)CC5)ncnc4n(-c4nnc(C(F)F)s4)c3c2)CC1 [Example 130, (S)—N-(1-Cyanocyclopropyl)-9-(5-(difluoromethyl)-1,3,4-thiadiazol-2-yl)-4-(1-(3-hydroxypyrrolidine-1-carbonyl)piperidin-4-yl)-9H-pyrimido[4,5-b]indole-7-sulfonamide] | < 100 | 100 to 1000

Now from value to compound, other results behind:

Row | IC50 [1] [nM] | Compound | IC50 (Kuramochi cell line) [nM]
11 | < 100 | COCCN1CCN(c2ncnc3c2c2ccc(S(=O)(=O)NC4(C#N)CC4)cc2n3-c2nnc(C(F)F)s2)C[C@@H]1C [Example 178, (S)-N-(1-cyanocyclopropyl)-9-(5-(difluoromethyl)-1,3,4-thiadiazol-2-yl)-4-(4-(2-methoxyethyl)-3-methylpiperazin-1-yl)-9H-pyrimido[4,5-b]indole-7-sulfonamide] | < 100
12 | 100 to 1000 | CC(C)C(=O)N1[C@H](C)CN(c2ncnc3c2c2ccc(S(=O)(=O)NC4(C#N)CC4)cc2n3-c2nnc(C(F)F)s2)C[C@H]1C [Example 31, N-(1-Cyanocyclopropyl)-9-(5-(difluoromethyl)-1,3,4-thiadiazol-2-yl)-4-((3R,5R)-4-isobutyryl-3,5-dimethylpiperazin-1-yl)-9H-pyrimido[4,5-b]indole-7-sulfonamide] | 100 to 1000
13 | < 100 | C[C@@H](N)C(=O)N1CCC(c2ncnc3c2c2ccc(S(=O)(=O)NC4(C#N)CC4)cc2n3-c2nnc(C(F)F)s2)CC1 [Example 127, 4-(1-(D-Alanyl)piperidin-4-yl)-N-(1-cyanocyclopropyl)-9-(5-(difluoromethyl)-1,3,4-thiadiazol-2-yl)-9H-pyrimido[4,5-b]indole-7-sulfonamide] | 100 to 1000
14 | < 100 | CN(C)C(=O)N1CC=C(c2ncnc3c2c2cc(F)c(S(=O)(=O)NC4(C)CC4)cc2n3-c2nnc(C(F)F)s2)CC1 [Example 81, 4-(9-(5-(Difluoromethyl)-1,3,4-thiadiazol-2-yl)-6-fluoro-7-(N-(1-methylcyclopropyl)sulfamoyl)-9H-pyrimido[4,5-b]indol-4-yl)-N,N-dimethyl-3,6-dihydropyridine-1(2H)-carboxamide] | < 100
15 | < 100 | CC(C)C(=O)N1CCN(c2ncnc3c2c2ccc(S(=O)(=O)NC4(C#N)CC4)cc2n3-c2nnc(C(F)F)s2)CC1 [Example 11, N-(1-Cyanocyclopropyl)-9-(5-(difluoromethyl)-1,3,4-thiadiazol-2-yl)-4-(4-isobutyrylpiperazin-1-yl)-9H-pyrimido[4,5-b]indole-7-sulfonamide] | < 100
16 | < 100 | CC1(C(=O)N2CCN(c3ncnc4c3c3ccc(S(=O)(=O)NC5(C#N)CC5)cc3n4-c3nnc(C(F)F)s3)CC2)CC1 [Example 10, N-(1-Cyanocyclopropyl)-9-(5-(difluoromethyl)-1,3,4-thiadiazol-2-yl)-4-(4-(1-methylcyclopropane-1-carbonyl)piperazin-1-yl)-9H-pyrimido[4,5-b]indole-7-sulfonamide] | < 100
17 | < 100 | N#CC1(NS(=O)(=O)c2ccc3c4c(N5CCN(C(=O)C6CC6(F)F)CC5)ncnc4n(-c4nnc(C(F)F)s4)c3c2)CC1 (centres unmarked) [Example 26, N-(1-Cyanocyclopropyl)-4-(4-(2,2-difluorocyclopropane-1-carbonyl)piperazin-1-yl)-9-(5-(difluoromethyl)-1,3,4-thiadiazol-2-yl)-9H-pyrimido[4,5-b]indole-7-sulfonamide] | < 100
18 | < 100 | CC(C)C(=O)N1CC=C(c2ncnc3c2c2ccc(S(=O)(=O)NC4(C#N)CC4)cc2n3-c2nnc(C(F)F)s2)CC1 [Example 74, N-(1-Cyanocyclopropyl)-9-(5-(difluoromethyl)-1,3,4-thiadiazol-2-yl)-4-(1-isobutyryl-1,2,3,6-tetrahydropyridin-4-yl)-9H-pyrimido[4,5-b]indole-7-sulfonamide] | < 100
19 | < 100 | CC(C)C(=O)N1CC=C(c2ncnc3c2c2cc(F)c(S(=O)(=O)NC4(C#N)CC4)cc2n3-c2nnc(C(F)F)s2)CC1 [Example 91, N-(1-Cyanocyclopropyl)-9-(5-(difluoromethyl)-1,3,4-thiadiazol-2-yl)-6-fluoro-4-(1-isobutyryl-1,2,3,6-tetrahydropyridin-4-yl)-9H-pyrimido[4,5-b]indole-7-sulfonamide] | < 100
